Test results as given in ChEMBL document CHEMBL1124325, “Interactions of thiol-containing androgens with human placental aromatase” (J Med Chem, 1989).

Experiments:
[1] = target: T1, Aromatase (Homo sapiens, UniProt P11511); assay: Dithiothreitol ([…]) reactivation of human placental aromatase following 1.0 uM inactivation for 5 minutes; conditions: read-out: Activity remaning
T1 sequence (P11511 whole entry): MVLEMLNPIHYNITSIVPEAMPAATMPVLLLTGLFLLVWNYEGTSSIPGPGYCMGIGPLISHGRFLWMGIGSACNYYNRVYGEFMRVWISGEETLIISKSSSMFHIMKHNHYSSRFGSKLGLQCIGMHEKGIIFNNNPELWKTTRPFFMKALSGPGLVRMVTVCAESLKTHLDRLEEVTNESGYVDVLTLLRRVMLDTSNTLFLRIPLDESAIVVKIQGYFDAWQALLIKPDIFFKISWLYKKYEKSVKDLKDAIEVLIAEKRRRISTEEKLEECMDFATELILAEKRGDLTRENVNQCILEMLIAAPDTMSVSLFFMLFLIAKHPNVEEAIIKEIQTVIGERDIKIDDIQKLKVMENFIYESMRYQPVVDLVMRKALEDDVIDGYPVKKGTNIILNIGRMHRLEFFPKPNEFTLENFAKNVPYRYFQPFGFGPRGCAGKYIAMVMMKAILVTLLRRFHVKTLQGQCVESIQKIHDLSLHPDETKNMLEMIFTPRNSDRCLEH

[2] = target: T1, Aromatase; assay: Binding affinity for formation of reversible enzyme-ligand complexes with human placental aromatase (PL2)
[3] = target: T1, Aromatase; assay: Maximum absorbance for formation of reversible-enzyme-ligand complexes with human placental aromatase (PL1)
[4] = target: T1, Aromatase; assay: Catalytic constant (Kcat) for reversible enzyme-ligand complex formation with human placental aromatase (PL2)
[5] = target: T1, Aromatase; assay: Dithiothreitol ([…]) reactivation of human placental aromatase following 1.0 uM inactivation for 10 minutes; conditions: read-out: Activity remaning
[6] = target: T1, Aromatase; assay: Binding affinity constant for formation of reversible enzyme-ligand complex with human placental aromatase (PL1); conditions: read-out: Ks
[7] = target: T1, Aromatase; assay: Binding affinity(KI) for formation of reversible enzyme-ligand complex with human placental aromatase (PL2)

Compound | activity at 1 µM [1] [%] | Ki [2] [nM] | Activity [3] | k cat [4] | activity at 1 µM [5] [%] | Kd [6] [nM] | Ki [7] [nM]
C[C@]12CCC(=O)C(O)=C1CCC1C2CC[C@]2(C)C(=O)CCC12.OC(CS)C(O)CS (stereo not given in full) | 41 | – | – | – | – | – | –
C[C@]12CCC3C(CCC4=CC(=O)CC[C@@]43CS)C1CCC2=O.OC(CS)C(O)CS (stereo not given in full) | 59 | – | – | – | – | – | –
C[C@]12CCC3C(CCC4=CC(=O)CC[C@@]43S)C1CCC2=O.OC(CS)C(O)CS (stereo not given in full) | 48 | – | – | – | – | – | –
C[C@]12CCC3C(CCC4=CC(=O)CC[C@@]43CS)C1CCC2=O (stereo not given in full) | 60 | 47 | 0.179 Amax nM-1 | 0.0025 | – | – | –
C#CC[C@]12CCC(=O)C=C1CCC1C2CC[C@]2(C)C(=O)CCC12.OC(CS)C(O)CS (stereo not given in full) | – | – | – | – | 63 | – | –
C[C@]12C[C@@H](S)C(=O)C=C1CCC1C2CC[C@]2(C)C(=O)CCC12.OC(CS)C(O)CS (stereo not given in full) | – | – | – | – | 74 | – | –
C[C@]12C[C@@H](S)C(=O)C=C1CCC1C2CC[C@]2(C)C(=O)CCC12 (stereo not given in full) | – | – | 0.169 Amax nM-1 | 0.002 | 75 | 602 | 3100
C[C@]12CCC3C(CCC4=CC(=O)CC[C@@]43S)C1CCC2=O (stereo not given in full) | 50 | – | 0.187 Amax nM-1 | 0.0043 | – | 144 | 28
C[C@]12CCC3C(CCC4=CC(=O)CC[C@@]43S)C1CC[C@@H]2O (stereo not given in full) | – | – | 0.167 Amax nM-1 | 0.004 | – | 785 | 100
CC12CCC3C(CC=C4CC(=O)CCC43CO)C1CCC2=O (stereo not given) | – | – | 0.125 Amax nM-1 | – | – | 368 | –
C[C@]12CCC(=O)C=C1CC[C@@H]1[C@@H]2CC[C@]2(C)C(=O)CC[C@@H]12 [ANDROSTENEDIONE] | – | – | 0.177 Amax nM-1 | – | – | 105 | –
OC(CS)C(O)CS (stereo not drawn) [DL-DITHIOTHREITOL] | 97 | – | – | – | 84 | – | –
C[C@]12CCC(=O)C(O)=C1CC[C@@H]1[C@@H]2CC[C@]2(C)C(=O)CC[C@@H]12 [FORMESTANE] | 43 | – | 0.162 Amax nM-1 | 0.008 *10e-3 | – | 324 | 542
C#CC[C@]12CCC(=O)C=C1CC[C@@H]1[C@@H]2CC[C@]2(C)C(=O)CC[C@@H]12 [PLOMESTANE] | – | – | 0.191 Amax nM-1 | 0.0007 | 65 | 213 | 6.2
C[C@]12CC[C@H]3[C@@H](CCC4=CC(=O)CC[C@@]43C)[C@@H]1CC[C@@H]2O [TESTOSTERONE] | – | – | 0.166 Amax nM-1 | – | – | – | –
